{
  "source": "patent US20040038861A1",
  "about": "“Methods and compositions for normalizing lipid levels in mammalian tissues” (priority 2001, published 2004)",
  "system": "soleus muscle",
  "experiment": "Individual free fatty acids by gas chromatography in isolated soleus muscle from normally fed rats",
  "type": "cell-based, rat",
  "procedure": "Animal models. Normallyfed rats. All protocols were approved by the University of Auckland Animal Ethics Committee. Male Wistar rats, (age=50 d) weighing 200-250 g, were housed in a constant 12 h/12 h-light/dark cycle and received standard rat-chow (Diet 86, NRM, Auckland) and water ad libitum. The standard diet contained 5% fat (w/w), which comprised mainly beef tallow. The triglyceride, total and free fatty acid contents of representative samples of this diet were analyzed, and are shown in Table 3. Rats were anaesthetized by intraperitoneal injection of sodium pentobarbital (45 mg/kg body weight) then sacrificed by cervical dislocation.\nSoleus muscle tissue isolation and incuhation.Immersion and incubation media was Krebs-Henseleit buffer (KHB) containing 118.5 mM NaCl, 4.75 mM KCl, 1.18 mM MgSO4.7H2O and KH2PO4, 24.8 mM NaHCO3, 2.54 mM CaCl2 and 10 mM d-glucose. The medium was gassed continuously with 95% O2/5% CO2. […] Soleus muscles of both legs were excised keeping the tissue immersed in KHB; muscles were separated into two equal parts and transferred to the incubation flasks. At the completion of incubation the muscles were snap frozen in liquid nitrogen, and then trimmed of connective tissue and all visible fat. The muscle strips were stored at −80° C. until analysis.\nLipid extraction and chromatographic separation of fatty acids. Total lipids were extracted from muscle strips by a modified version of the method of Bligh and Dyer (Gorski et al., 1988, Mol & Cell Biochem 178:113-118; 1. Bligh et al., 1959, Can J Biochem Physiol 37: 911-917). Muscles were homogenised (Soniprep 150) in 0.4 ml of deionised water. Solvent volumes used herein were varied according to the water content of the muscle (ie muscle weight) as described (Bligh & Dyer, supra). 2 vols of methanol containing 0.005% butylated hydroxy toluene (BHT) and 1 vol chloroform were added to the muscle suspension. Homogenates were vortexed at maximum speed for 2 minutes and centrifuged at 2,500 g for 4 minutes. Supernatants were recovered and pellets re-extracted with 2 vol methanol, 1 vol chloroform and 0.8 vol 0.2 N HCl. Residues were vortexed for 2 min then centrifuged at 3,500 g for 3 min. After centrifugation the combined supernatants were diluted with 2v each of milli Q water and chloroform and the phases separated by centrifugation at 3,500 g for 4 minutes. The lower chloroform phase was recovered, neutralised by dropwise addition of 0.2 N methanolic NH4OH and evaporated down in a stream of N2. The samples were stored at −80° C. until required.\nAminopropyl phase (250 mg) was packed into 16 ml teflon columns with teflon frits placed at the top and bottom of the bonded phase. Columns were placed in a Vac Elut apparatus and washed twice with 2 ml portions of hexane (Prasad et al., 1988, J Chromato 428: 221-228; Kaluzny et al., 1985, J Lipid Res 26: 135-140). The dry lipid samples were taken up in two 0.150 ml portions of chloroform and applied to the column under atmospheric pressure. After adsorption the neutral lipids were eluted with 4 ml of chloroform-2-propanol (2:1, v/v) and the free fatty acids eluted with 4 ml of 2% acetic acid in diethyl ether. The solvent containing the free fatty acids was dried under a stream of N2.\nGas-liquid chromatographic analysis. Dry free fatty acid residues were processed for derivatisation of methyl esters by the boron trifluoride-methanol method (Prasad, supra). 1 ml of boron trifluoride in methanol (BF3) was added to each sample, the sample vials were heated at 70° C. for 5 minutes, shaken vigorously, and baked for a further 10 minutes. Once the samples reached room temperature 0.5 ml milli Q water was added, the sample vials shaken, 0.1 ml heptane was added and the sample shaken again. 0.05 ml of the top heptane layer was removed for GLC analysis. […]",
  "key": {"[1]": {"conditions": "normally fed rats, hormone 1 hour, GC"}, "[2]": {"conditions": "normally fed rats, hormone 1 hour, GC, listed as norepinephrine"}},
  "data": [
    {"smiles": "NC[C@H](O)c1ccc(O)c(O)c1", "note": "[Norepinephrine, norepinephrine]", "values": [
      {"measurement": "Total free fatty acids", "setting": "1 hour, GC, hormone concentrations 100 nM for all", "value": "0.527 ± 0.03", "unit": "nmol/g wwt"},
      {"measurement": "free fatty acid C14:0 as percentage of total resting fatty acid", "setting": "normally fed rats, 1 hour", "value": 3.1, "unit": "%"},
      {"measurement": "free fatty acid C15:0 as percentage of total resting fatty acid", "setting": "normally fed rats, 1 hour", "value": 10.9, "unit": "%"},
      {"measurement": "free fatty acid C16:0 as percentage of total resting fatty acid", "setting": "normally fed rats, 1 hour", "value": 2.2, "unit": "%"},
      {"measurement": "free fatty acid C16:1 (n-7) as percentage of total resting fatty acid", "setting": "normally fed rats, 1 hour", "value": 14.3, "unit": "%"},
      {"measurement": "free fatty acid C16:1 (n-9) as percentage of total resting fatty acid", "setting": "normally fed rats, 1 hour", "value": 6.0, "unit": "%"},
      {"measurement": "free fatty acid C17:0 as percentage of total resting fatty acid", "setting": "normally fed rats, 1 hour", "value": 7.2, "unit": "%"},
      {"measurement": "free fatty acid C18:0 as percentage of total resting fatty acid", "setting": "normally fed rats, 1 hour", "value": 2.4, "unit": "%"},
      {"measurement": "free fatty acid C18:1 (n-7) as percentage of total resting fatty acid", "setting": "normally fed rats, 1 hour", "value": 1.2, "unit": "%"},
      {"measurement": "free fatty acid C18:1 (n-9) as percentage of total resting fatty acid", "setting": "normally fed rats, 1 hour", "value": 1.4, "unit": "%"},
      {"measurement": "free fatty acid C18:2 as percentage of total resting fatty acid", "setting": "normally fed rats, 1 hour", "value": 0.8, "unit": "%"},
      {"measurement": "free fatty acid C18:3 as percentage of total resting fatty acid", "setting": "normally fed rats, 1 hour", "value": 2.5, "unit": "%"},
      {"measurement": "free fatty acid C20:0 as percentage of total resting fatty acid", "setting": "normally fed rats, 1 hour", "value": 2.0, "unit": "%"},
      {"measurement": "free fatty acid C20:4 as percentage of total resting fatty acid", "setting": "normally fed rats, 1 hour", "value": 0.9, "unit": "%"},
      {"measurement": "free fatty acid C20:5 as percentage of total resting fatty acid", "setting": "normally fed rats, 1 hour", "value": 0.4, "unit": "%"},
      {"measurement": "free fatty acid C22:4 as percentage of total resting fatty acid", "setting": "normally fed rats, 1 hour", "value": 7.5, "unit": "%"},
      {"measurement": "free fatty acid C22:6 as percentage of total resting fatty acid", "setting": "normally fed rats, 1 hour", "value": 2.5, "unit": "%"},
      {"measurement": "free fatty acid adrenic C22:4", "setting": "[1]", "value": "0.007 ± 0.001", "unit": "nmol/g wwt"},
      {"measurement": "free fatty acid arachidic C20:0", "setting": "[1]", "value": "0.003 ± 0.001", "unit": "nmol/g wwt"},
      {"measurement": "free fatty acid arachidonic C20:4", "setting": "[1]", "value": "0.015 ± 0.0007", "unit": "nmol/g wwt"},
      {"measurement": "free fatty acid cervonic C22:6", "setting": "[1]", "value": "0.022 ± 0.0015", "unit": "nmol/g wwt"},
      {"measurement": "free fatty acid linoleic C18:2", "setting": "[1]", "value": "0.043 ± 0.003", "unit": "nmol/g wwt"},
      {"measurement": "free fatty acid linolenic C18:3", "setting": "[1]", "value": "0.007 ± 0.0025", "unit": "nmol/g wwt"},
      {"measurement": "free fatty acid margaric C17:0", "setting": "[1]", "value": "0.01 ± 0.0007", "unit": "nmol/g wwt"},
      {"measurement": "free fatty acid myristic C14:0", "setting": "[1]", "value": "0.023 ± 0.001", "unit": "nmol/g wwt"},
      {"measurement": "free fatty acid oleic C18:1", "setting": "[1]", "value": "0.07 ± 0.0056", "unit": "nmol/g wwt"},
      {"measurement": "free fatty acid palmitic C16:0", "setting": "[1]", "value": "0.175 ± 0.011", "unit": "nmol/g wwt"},
      {"measurement": "free fatty acid palmitoleic (n-7) C16:1", "setting": "[1]", "value": "0.015 ± 0.002", "unit": "nmol/g wwt"},
      {"measurement": "free fatty acid palmitoleic (n-9) C16:1", "setting": "[1]", "value": "0.007 ± 0.0007", "unit": "nmol/g wwt"},
      {"measurement": "free fatty acid pentadecanoic C15:0", "setting": "[1]", "value": "0.01 ± 0.0012", "unit": "nmol/g wwt"},
      {"measurement": "free fatty acid stearic C18:0", "setting": "[1]", "value": "0.1 ± 0.006", "unit": "nmol/g wwt"},
      {"measurement": "free fatty acid timnodonic C20:5", "setting": "[1]", "value": "0.002 ± 0.0005", "unit": "nmol/g wwt"},
      {"measurement": "free fatty acid vaccenic C18:1", "setting": "[1]", "value": "0.015 ± 0.0008", "unit": "nmol/g wwt"},
      {"measurement": "free fatty acid arachidonic C20:4", "setting": "[2]", "value": "0.015±0.0007", "unit": "nmol/g wwt"},
      {"measurement": "free fatty acid cervonic C22:6", "setting": "[2]", "value": "0.022±0.0015", "unit": "nmol/g wwt"},
      {"measurement": "free fatty acid palmitoleic (n-9) C16:1", "setting": "[2]", "value": "0.007±0.0007", "unit": "nmol/g wwt"}
    ]}
  ]
}
